Patent US11524966B1 (Valo Early Discovery, Inc., priority 2017, dated 2022)
pIC50: −log10 of the molar value.

molecular target: T1, USP28 (His-tagged USP28-FL-mammalian) (Homo sapiens, UniProt Q96RU2); experiment: Ubiquitin-Rhodamine 110 Assay for USP28 Activity, Example A-1(a); format: biochemical; settings: Ubiquitin-Rhodamine 110 assay, Example A-1(a); read-out: USP28 A-1(a) IC50 range
T1 construct: Expression of USP28 (1-1077)-TEV-6*His (pTT5 vector); made in house; host or cells: Expi293f cells (pTT5 vector)
T1 sequence (Q96RU2 1-1077): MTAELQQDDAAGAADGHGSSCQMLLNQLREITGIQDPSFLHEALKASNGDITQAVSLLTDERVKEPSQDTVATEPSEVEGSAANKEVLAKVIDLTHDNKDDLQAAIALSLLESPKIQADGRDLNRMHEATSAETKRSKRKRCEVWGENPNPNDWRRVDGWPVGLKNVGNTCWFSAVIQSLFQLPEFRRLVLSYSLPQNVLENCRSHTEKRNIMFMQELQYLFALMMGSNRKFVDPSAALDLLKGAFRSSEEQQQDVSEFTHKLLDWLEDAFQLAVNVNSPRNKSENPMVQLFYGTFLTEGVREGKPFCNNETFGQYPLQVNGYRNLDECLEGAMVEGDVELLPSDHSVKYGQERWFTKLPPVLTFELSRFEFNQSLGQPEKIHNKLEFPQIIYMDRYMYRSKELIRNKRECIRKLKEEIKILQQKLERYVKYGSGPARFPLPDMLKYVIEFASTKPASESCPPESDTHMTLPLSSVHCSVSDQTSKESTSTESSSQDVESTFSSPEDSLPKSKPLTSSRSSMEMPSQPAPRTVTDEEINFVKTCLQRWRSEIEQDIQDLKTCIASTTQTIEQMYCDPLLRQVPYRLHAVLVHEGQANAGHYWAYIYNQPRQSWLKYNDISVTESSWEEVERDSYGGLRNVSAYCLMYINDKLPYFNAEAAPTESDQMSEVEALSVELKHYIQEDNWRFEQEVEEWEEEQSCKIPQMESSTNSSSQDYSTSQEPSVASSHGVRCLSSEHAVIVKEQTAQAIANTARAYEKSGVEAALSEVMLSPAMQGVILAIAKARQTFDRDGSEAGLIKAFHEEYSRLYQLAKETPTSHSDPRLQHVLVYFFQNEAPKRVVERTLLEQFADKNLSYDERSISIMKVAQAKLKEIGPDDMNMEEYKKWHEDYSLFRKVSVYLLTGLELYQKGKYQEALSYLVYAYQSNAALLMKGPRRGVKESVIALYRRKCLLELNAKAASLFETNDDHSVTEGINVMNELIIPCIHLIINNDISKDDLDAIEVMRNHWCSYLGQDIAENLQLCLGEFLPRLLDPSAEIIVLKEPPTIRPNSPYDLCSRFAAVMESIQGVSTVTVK
Outline: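 IC50 from 4-parameter logistic fit of percent inhibition versus no-enzyme and DMSO controls; compounds 25 μM to 1.3 nM, 3-fold. Ub-Rh110 cleavage (25 nM, below Km) by […] mammalian-expressed USP28-FL-His ran 45 min at room temperature, stopped with 10 mM citric acid, read ex 485/em 535.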

SMILES	pIC50
CO[C@H]1CN(c2ccc3c(c2)OC[C@H](NC(=O)c2sc4nc(C)cnc4c2N)C3)C[C@@H]1N [Example 117, 7-amino-N-[(3R)-7-[(3S,4S)-3-amino-4-methoxypyrrolidin-1-yl]-3,4-dihydro-2H-1-benzopyran-3-yl]-3-methylthieno[2,3-b]pyrazine-6-carboxamide]	7.30 to 9.00
CO[C@H]1CN(c2ccc3c(c2)OC[C@H](NC(=O)c2sc4nc(C)sc4c2N)C3)C[C@@H]1N [Example 118, 6-amino-N-[(3R)-7-[(3S,4S)-3-amino-4-methoxypyrrolidin-1-yl]-3,4-dihydro-2H-1-benzopyran-3-yl]-2-methylthieno[2,3-d][1,3]thiazole-5-carboxamide]	6.70 to 7.30
CO[C@H]1CCN(c2ccc3c(c2)OC[C@H](NC(=O)c2sc4nc(C)ccc4c2N)C3)C[C@@H]1N [Example 119, 3-amino-N-[(3R)-7-[(3S,4S)-3-amino-4-methoxypiperidin-1-yl}-3,4-dihydro-2H-1-benzopyran-3-yl]-6-methylthieno[2,3-b]pyridine-2-carboxamide]	6.70 to 7.30
CO[C@@H]1CCN(c2ccc3c(c2)OC[C@H](NC(=O)c2sc4nc(C)ccc4c2N)C3)C[C@H]1N [Example 120, 3-amino-N-[(3R)-7-[(3R,4R)-3-amino-4-methoxypiperidin-1-yl]-3,4-dihydro-2H-1-benzopyran-3-yl]-6-methylthieno[2,3-b]pyridine-2-carboxamide]	7.30 to 9.00
CO[C@@H]1CN(c2ccc3c(c2)OC[C@H](NC(=O)c2sc4nc(C)ccc4c2N)C3)C[C@@H]1N [Example 121, 3-amino-N-[(3R)-7-[(3S,4R)-3-amino-4-methoxypyrrolidin-1-yl]-3,4-dihydro-2H-1-benzopyran-3-yl]-6-methylthieno[2,3-b]pyridine-2-carboxamide]	7.30 to 9.00
CO[C@H]1CN(c2ccc3c(c2)OC[C@H](NC(=O)c2sc4nc(C)ccc4c2N)C3)C[C@H]1N [Example 122, 3-amino-N-[(3R)-7-[(3R,4S)-3-amino-4-methoxypyrrolidin-1-yl]-3,4-dihydro-2H-1-benzopyran-3-yl]-6-methylthieno[2,3-b]pyridine-2-carboxamide]	7.30 to 9.00
Cc1ccc2c(N)c(C(=O)N[C@H]3COc4cc([C@H]5C[C@@H](N)C5)ccc4C3)sc2n1 [Example 123, 3-amino-6-methyl-N-[(3R)-7-[(1s,3S)-3-aminocyclobutyl]-3,4-dihydro-2H-1-benzopyran-3-yl]thieno[2,3-b]pyridine-2-carboxamide]	7.30 to 9.00
Cc1ccc2c(N)c(C(=O)N[C@H]3COc4cc([C@H]5C[C@H](N)C5)ccc4C3)sc2n1 [Example 124, 3-amino-6-methyl-N-[(3R)-7-[(1r,3r)-3-aminocyclobutyl]-3,4-dihydro-2H-1-benzopyran-3-yl]thieno[2,3-b]pyridine-2-carboxamide]	7.30 to 9.00
Cc1ccc2c(N)c(C(=O)N[C@H]3COc4cc(C5CC6COCC(C5)N6)ccc4C3)sc2n1 (stereo partly drawn) [Example 125, 3-amino-6-methyl-N-[(3R)-7-{3-oxa-9-azabicyclo[3.3.1]nonan-7-yl}-3,4-dihydro-2H-1-benzopyran-3-yl]thieno[2,3-b]pyridine-2-carboxamide]	7.30 to 9.00
Cc1ccc2c(N)c(C(=O)N[C@H]3COc4cc(N5CC6CCC(C5)N6)c(C#N)c(F)c4C3)sc2n1 [Example 126, 3-amino-N-[(3R)-6-cyano-7-{3,8-diazabicyclo[3.2.1]octan-3-yl}-5-fluoro-3,4-dihydro-2H-1-benzopyran-3-yl]-6-methylthieno[2,3-b]pyridine-2-carboxamide]	7.30 to 9.00
Cc1ccc2c(N)c(C(=O)N[C@H]3COc4cc(N5CC6CNCC(C5)O6)c(C#N)c(F)c4C3)sc2n1 [Example 127, 3-amino-N-[(3R)-6-cyano-5-fluoro-7-{9-oxa-3,7-diazabicyclo[3.3.1]nonan-3-yl}-3,4-dihydro-2H-1-benzopyran-3-yl]-6-methylthieno[2,3-b]pyridine-2-carboxamide]	7.30 to 9.00
CO[C@H]1CN(c2ccc3c(c2)OC[C@H](NC(=O)c2sc4nc(C)ccc4c2N)C3)CC[C@@H]1N [Example 128, 3-amino-N-[(3R)-7-[(3S,4S)-4-amino-3-methoxypiperidin-1-yl]-3,4-dihydro-2H-1-benzopyran-3-yl]-6-methylthieno[2,3-b]pyridine-2-carboxamide]	7.30 to 9.00
CO[C@@H]1CN(c2ccc3c(c2)OC[C@H](NC(=O)c2sc4nc(C)ccc4c2N)C3)CC[C@H]1N [Example 129, 3-amino-N-[(3R)-7-[(3R,4R)-4-amino-3-methoxypiperidin-1-yl]-3,4-dihydro-2H-1-benzopyran-3-yl]-6-methylthieno[2,3-b]pyridine-2-carboxamide]	7.30 to 9.00
CO[C@H]1CN(c2ccc3c(c2)CC[C@H](NC(=O)c2sc4nc(C)cnc4c2N)C3)C[C@@H]1N [Example 130, 7-amino-N-[(2S)-6-[(3S,4S)-3-amino-4-methoxypyrrolidin-1-yl]-1,2,3,4-tetrahydronaphthalen-2-yl]-3-methylthieno[2,3-b]pyrazine-6-carboxamide]	6.70 to 7.30
CCn1ccc2cc(C(=O)N[C@H]3CCc4cc(N5C[C@H](OC)[C@@H](N)C5)ccc4C3)nnc21 [Example 131, N-[(2S)-6-[(3S,4S)-3-amino-4-methoxypyrrolidin-1-yl]-1,2,3,4-tetrahydronaphthalen-2-yl]-7-ethyl-7H-pyrrolo[2,3-c]pyridazine-3-carboxamide]	< 5.70
CCn1ccc2cc(C(=O)N[C@H]3CCc4cc(N5C[C@H](OC)[C@@H](N)C5)ccc4C3)cnc21 [Example 132, N-[(2S)-6-[(3S,4S)-3-amino-4-methoxypyrrolidin-1-yl]-1,2,3,4-tetrahydronaphthalen-2-yl]-1-ethyl-1H-pyrrolo[2,3-b]pyridine-5-carboxamide]	5.70 to 6.70
CO[C@H]1CN(c2ccc3c(c2)CC[C@H](NC(=O)c2sc4nc(C)sc4c2N)C3)C[C@@H]1N [Example 133, 6-amino-N-[(2S)-6-[(3S,4S)-3-amino-4-methoxypyrrolidin-1-yl]-1,2,3,4-tetrahydronaphthalen-2-yl]-2-methylthieno[2,3-d][1,3]thiazole-5-carboxamide]	6.70 to 7.30
COc1ccc2c(N)c(C(=O)N[C@H]3CCc4cc(N5C[C@H](OC)[C@@H](N)C5)ccc4C3)sc2n1 [Example 134, 3-amino-N-[(2S)-6-[(3S,4S)-3-amino-4-methoxypyrrolidin-1-yl]-1,2,3,4-tetrahydronaphthalen-2-yl]-6-methoxythieno[2,3-b]pyridine-2-carboxamide]	5.70 to 6.70
COc1nc2sc(C(=O)N[C@H]3CCc4cc(N5C[C@H](OC)[C@@H](N)C5)ccc4C3)c(N)c2cc1F [Example 135, 3-amino-N-[(2S)-6-[(3S,4S)-3-amino-4-methoxypyrrolidin-1-yl]-1,2,3,4-tetrahydronaphthalen-2-yl]-5-fluoro-6-methoxythieno[2,3-b]pyridine-2-carboxamide]	5.70 to 6.70
CO[C@H]1CN(c2cc(F)c3c(c2)CC[C@H](NC(=O)c2sc4nc(C)ccc4c2N)C3)C[C@@H]1N [Example 136, 3-amino-N-[(2S)-6-[(3S,4S)-3-amino-4-methoxypyrrolidin-1-yl]-8-fluoro-1,2,3,4-tetrahydronaphthalen-2-yl]-6-methylthieno[2,3-b]pyridine-2-carboxamide]	< 5.70
CO[C@H]1CN(c2cc(F)c3c(c2)CC[C@@H](NC(=O)c2sc4nc(C)ccc4c2N)C3)C[C@@H]1N [Example 137, 3-amino-N-[(2R)-6-[(3S,4S)-3-amino-4-methoxypyrrolidin-1-yl]-8-fluoro-1,2,3,4-tetrahydronaphthalen-2-yl]-6-methylthieno[2,3-b]pyridine-2-carboxamide]	6.70 to 7.30
CCn1ccc2cc(C(=O)N[C@H]3CCc4cc(N5C[C@H](OC)[C@@H](N)C5)cc(F)c4C3)nnc21 [Example 138, N-[(2S)-6-[(3S,4S)-3-amino-4-methoxypyrrolidin-1-yl]-8-fluoro-1,2,3,4-tetrahydronaphthalen-2-yl]-7-ethyl-7H-pyrrolo[2,3-c]pyridazine-3-carboxamide]	< 5.70
